Tested on: LG0567-F671-PDC complex spheroids viability
Assay: Anticancer human tumor LG0567-F671-PDC patient-derived lung adenocarcinoma cell line growth inhibition [RAS]
Conditions: for IC50: curve of first compound; for viability, T/C: stronger effect = lower value; active = viability on the fitted dose curve at most 10% of control; inactive = the rest
Outline: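 Multi-cell-type spheroids: tumor cells plus HUVEC endothelial cells and mesenchymal stem cells. RAS-pathway inhibitors were combined with targeted agents, each dosed in half-log steps down from clinical Cmax, or from 10 microM when Cmax was unknown.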

[1] = second compound 0.0316 µM, first compound 0.0316 µM
[2] = second compound 0.0316 µM, first compound 0.1 µM
[3] = second compound 0.0316 µM, first compound 0.316 µM
[4] = second compound 0.0316 µM, first compound 1 µM
[5] = second compound 0.1 µM, first compound 0.0316 µM
[6] = second compound 0.1 µM, first compound 0.1 µM
[7] = second compound 0.1 µM, first compound 0.316 µM
[8] = second compound 0.1 µM, first compound 1 µM
[9] = second compound 0.316 µM, first compound 0.0316 µM
[10] = second compound 0.316 µM, first compound 0.1 µM
[11] = second compound 0.316 µM, first compound 0.316 µM
[12] = second compound 0.316 µM, first compound 1 µM
[13] = second compound 1 µM, first compound 0.0316 µM
[14] = second compound 1 µM, first compound 0.1 µM
[15] = second compound 1 µM, first compound 0.316 µM
[16] = second compound 1 µM, first compound 1 µM
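Note: spheroids exposed to compound for seven days before readout.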
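Throughout, for IC50: luminescence signal used as a proxy for viable cells.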

CCC(CC)c1cc(NC2CCC(N)C2)n2nccc2n1 (stereo unspecified) + C#Cc1c(F)ccc2cc(O)cc(-c3ncc4c(N5CC6CCC(C5)N6)nc(OCC56CCCN5CC(F)C6)nc4c3F)c12
active: viability, T/C (second compound 0.0316 µM, first compound 3.16 µM) 4.67% | viability, T/C (second compound 0.0316 µM, first compound 10 µM) 0.25% | viability, T/C (second compound 0.1 µM, first compound 3.16 µM) 4.32% | viability, T/C (second compound 0.1 µM, first compound 10 µM) 0.47% | viability, T/C (second compound 0.316 µM, first compound 3.16 µM) 3.78% | viability, T/C (second compound 0.316 µM, first compound 10 µM) 0.39% | viability, T/C (second compound 1 µM, first compound 10 µM) 0.38% | viability, T/C (second compound 3.16 µM, first compound 3.16 µM) 2.86% | viability, T/C (second compound 3.16 µM, first compound 10 µM) 0.37% | viability, T/C (second compound 10 µM, first compound 0.316 µM) 10.3% | viability, T/C (second compound 10 µM, first compound 1 µM) 9.32% | viability, T/C (second compound 10 µM, first compound 3.16 µM) 1.25% | viability, T/C (second compound 10 µM, first compound 10 µM) 0.15%
1250 nM: IC50 (second compound 0.316 µM)
1710 nM: IC50 (second compound 0.1 µM)
< 31.6 nM: IC50 (second compound 1 µM) | IC50 (second compound 3.16 µM) | IC50 (second compound 10 µM)
inactive: viability, T/C [1] 102% | viability, T/C [2] 97.2% | viability, T/C [3] 111% | viability, T/C [4] 119% | viability, T/C [5] 78.4% | viability, T/C [6] 83.5% | viability, T/C [7] 92.2% | viability, T/C [8] 104% | viability, T/C [9] 60.3% | viability, T/C [10] 57.3% | viability, T/C [11] 59.7% | viability, T/C [12] 67.8% | viability, T/C [13] 32.4% | viability, T/C [14] 37% | viability, T/C [15] 43.4% | viability, T/C [16] 38.2% | viability, T/C (second compound 1 µM, first compound 3.16 µM) 3.47% | viability, T/C (second compound 3.16 µM, first compound 0.0316 µM) 18.2% | viability, T/C (second compound 3.16 µM, first compound 0.1 µM) 17.8% | viability, T/C (second compound 3.16 µM, first compound 0.316 µM) 20.2% | viability, T/C (second compound 3.16 µM, first compound 1 µM) 17.1% | viability, T/C (second compound 10 µM, first compound 0.0316 µM) 10.3% | viability, T/C (second compound 10 µM, first compound 0.1 µM) 11.3%
1900 nM: IC50 (second compound 0.0316 µM)

CC(C)n1nc(-c2ccc3oc(N)nc3c2)c2c(N)ncnc21 + CCn1c(-c2cc(N3CCN(C)CC3)cnc2C(C)OC)c2c3cc(ccc31)-c1csc(n1)CC(NC(=O)C1CC1C)C(=O)N1CCCC(N1)C(=O)OCC(C)(C)C2
active: viability, T/C (second compound 0.000949 µM, first compound 0.1 µM) 7.87% | viability, T/C (second compound 0.003 µM, first compound 0.00316 µM) 8.44% | viability, T/C (second compound 0.003 µM, first compound 0.01 µM) 6.54% | viability, T/C (second compound 0.003 µM, first compound 0.0316 µM) 4.49% | viability, T/C (second compound 0.003 µM, first compound 0.1 µM) 3.31% | viability, T/C (second compound 0.00949 µM, first compound 0.000316 µM) 5.79% | viability, T/C (second compound 0.00949 µM, first compound 0.001 µM) 5.54% | viability, T/C (second compound 0.00949 µM, first compound 0.00316 µM) 4.34% | viability, T/C (second compound 0.00949 µM, first compound 0.01 µM) 5.27% | viability, T/C (second compound 0.00949 µM, first compound 0.0316 µM) 2.11% | viability, T/C (second compound 0.00949 µM, first compound 0.1 µM) 1.59% | viability, T/C (second compound 0.03 µM, first compound 0.000316 µM) 3.45% | viability, T/C (second compound 0.03 µM, first compound 0.001 µM) 3.53% | viability, T/C (second compound 0.03 µM, first compound 0.00316 µM) 2.88% | viability, T/C (second compound 0.03 µM, first compound 0.01 µM) 2% | viability, T/C (second compound 0.03 µM, first compound 0.0316 µM) 1.3% | viability, T/C (second compound 0.03 µM, first compound 0.1 µM) 1.03% | viability, T/C (second compound 0.0949 µM, first compound 0.000316 µM) 3.67% | viability, T/C (second compound 0.0949 µM, first compound 0.001 µM) 2.67% | viability, T/C (second compound 0.0949 µM, first compound 0.00316 µM) 2.18% | viability, T/C (second compound 0.0949 µM, first compound 0.01 µM) 1.68% | viability, T/C (second compound 0.0949 µM, first compound 0.0316 µM) 1.09% | viability, T/C (second compound 0.0949 µM, first compound 0.1 µM) 0.8% | viability, T/C (second compound 0.3 µM, first compound 0.000316 µM) 2.77% | viability, T/C (second compound 0.3 µM, first compound 0.001 µM) 2.43% | viability, T/C (second compound 0.3 µM, first compound 0.00316 µM) 1.81% | viability, T/C (second compound 0.3 µM, first compound 0.01 µM) 1.5% | viability, T/C (second compound 0.3 µM, first compound 0.0316 µM) 1.12% | viability, T/C (second compound 0.3 µM, first compound 0.1 µM) 0.62%
inactive: viability, T/C (second compound 0.000949 µM, first compound 0.000316 µM) 24.8% | viability, T/C (second compound 0.000949 µM, first compound 0.001 µM) 23.1% | viability, T/C (second compound 0.000949 µM, first compound 0.00316 µM) 18.8% | viability, T/C (second compound 0.000949 µM, first compound 0.01 µM) 15.1% | viability, T/C (second compound 0.000949 µM, first compound 0.0316 µM) 11.8% | viability, T/C (second compound 0.003 µM, first compound 0.000316 µM) 12.8% | viability, T/C (second compound 0.003 µM, first compound 0.001 µM) 11.2%
< 0.316 nM: IC50 (second compound 0.000949 µM) | IC50 (second compound 0.003 µM) | IC50 (second compound 0.00949 µM) | IC50 (second compound 0.03 µM) | IC50 (second compound 0.0949 µM) | IC50 (second compound 0.3 µM)

Nc1ccn(C2OC(CO)C(O)C2(F)F)c(=O)n1 (stereo unspecified) + C=CC(=O)N1CCN(c2nc(OCC3CCCN3C)nc3c(F)c(-c4nc(N)cc(C)c4C(F)(F)F)c(Cl)cc23)C(C)C1
< 3.16 nM: IC50 (second compound 0.00316 µM) | IC50 (second compound 0.01 µM) | IC50 (second compound 0.0316 µM) | IC50 (second compound 0.1 µM) | IC50 (second compound 0.316 µM) | IC50 (second compound 1 µM)
inactive: viability, T/C (second compound 0.00316 µM, first compound 0.00316 µM) 18.4% | viability, T/C (second compound 0.00316 µM, first compound 0.01 µM) 16.4% | viability, T/C (second compound 0.00316 µM, first compound 0.0316 µM) 14.8% | viability, T/C (second compound 0.00316 µM, first compound 0.1 µM) 16.6% | viability, T/C (second compound 0.00316 µM, first compound 0.316 µM) 15.9% | viability, T/C (second compound 0.00316 µM, first compound 1 µM) 15.8% | viability, T/C (second compound 0.01 µM, first compound 0.00316 µM) 16.5% | viability, T/C (second compound 0.01 µM, first compound 0.01 µM) 13.8% | viability, T/C (second compound 0.01 µM, first compound 0.0316 µM) 13.9% | viability, T/C (second compound 0.01 µM, first compound 0.1 µM) 14.3% | viability, T/C (second compound 0.01 µM, first compound 0.316 µM) 14.3% | viability, T/C (second compound 0.01 µM, first compound 1 µM) 14.9% | viability, T/C (second compound 0.0316 µM, first compound 0.00316 µM) 15% | viability, T/C (second compound 0.0316 µM, first compound 0.01 µM) 14.2% | viability, T/C [1] 12.5% | viability, T/C [2] 14.5% | viability, T/C [3] 15.3% | viability, T/C [4] 12.8% | viability, T/C (second compound 0.1 µM, first compound 0.00316 µM) 14.2% | viability, T/C (second compound 0.1 µM, first compound 0.01 µM) 13.2% | viability, T/C [5] 14.2% | viability, T/C [6] 11.5% | viability, T/C [7] 12.9% | viability, T/C [8] 14% | viability, T/C (second compound 0.316 µM, first compound 0.00316 µM) 13.4% | viability, T/C (second compound 0.316 µM, first compound 0.01 µM) 13.8% | viability, T/C [9] 11.6% | viability, T/C [10] 12.6% | viability, T/C [11] 14.7% | viability, T/C [12] 11.6% | viability, T/C (second compound 1 µM, first compound 0.00316 µM) 14.1% | viability, T/C (second compound 1 µM, first compound 0.01 µM) 16.4% | viability, T/C [13] 14.7% | viability, T/C [14] 13.7% | viability, T/C [15] 14.2% | viability, T/C [16] 14.3%
